From ChEMBL document CHEMBL4130350, “Discovery, mechanism and metabolism studies of 2,3-difluorophenyl-linker-containing PARP1 inhibitors with enhanced in vivo efficacy for cancer therapy” (Eur J Med Chem, 2017)
In brackets after ≈: the same amount, converted by molar mass. Activity calls are given as the source filed them. No cut-off for these calls is given here.

How the values were obtained:
[1] = test system: Mus musculus; assay: Toxicity in nude BALB/cA mouse xenografted with human MDA-MB-436 cells harboring BRCA1 mutant assessed as weight loss at 50 mg/kg, po administered once daily for 21 consecutive days measured twice per week; type: organism-based; details: in vivo
[2] = test system: CAPAN-1; assay: Cell cycle arrest in human Capan1 cells assessed as accumulation at G0/G1 phase at 0.1 uM after 72 hrs by propidium iodide-staining based flow cytometry (reference value: 63.33%); type: functional
[3] = test system: V79; assay: Cytotoxicity against BRCA2 expressing Chinese hamster V79 cells after 3 days by CCK8 or SRB assay; type: cell-based; details: Cricetulus griseus, V79, 72 h
[4] = test system: MDA-MB-436; assay: Induction of apoptosis in human MDA-MB-436 cells assessed as early apoptotic cells at 0.1 uM after 96 hrs by Annexin V-FITC/propidium iodide double-staining based flow cytometery (reference value: 1.90%); type: functional
[5] = Efflux ratio of apparent permeability in human Caco2 cells after 2 hrs by LC-MS/MS analysis; type: ADME, cell-based; details: Caco-2
[6] = target: T1, Poly [ADP-ribose] polymerase 1 (Homo sapiens, UniProt P09874); assay: Inhibition of PARP1 in BRCA1 deficient human MDA-MB-436 cells assessed as increase in DNA double stranded breaks by measuring gammaH2AX levels after 72 hrs by Western blot analysis; type: cell-based
T1 sequence (P09874 whole entry): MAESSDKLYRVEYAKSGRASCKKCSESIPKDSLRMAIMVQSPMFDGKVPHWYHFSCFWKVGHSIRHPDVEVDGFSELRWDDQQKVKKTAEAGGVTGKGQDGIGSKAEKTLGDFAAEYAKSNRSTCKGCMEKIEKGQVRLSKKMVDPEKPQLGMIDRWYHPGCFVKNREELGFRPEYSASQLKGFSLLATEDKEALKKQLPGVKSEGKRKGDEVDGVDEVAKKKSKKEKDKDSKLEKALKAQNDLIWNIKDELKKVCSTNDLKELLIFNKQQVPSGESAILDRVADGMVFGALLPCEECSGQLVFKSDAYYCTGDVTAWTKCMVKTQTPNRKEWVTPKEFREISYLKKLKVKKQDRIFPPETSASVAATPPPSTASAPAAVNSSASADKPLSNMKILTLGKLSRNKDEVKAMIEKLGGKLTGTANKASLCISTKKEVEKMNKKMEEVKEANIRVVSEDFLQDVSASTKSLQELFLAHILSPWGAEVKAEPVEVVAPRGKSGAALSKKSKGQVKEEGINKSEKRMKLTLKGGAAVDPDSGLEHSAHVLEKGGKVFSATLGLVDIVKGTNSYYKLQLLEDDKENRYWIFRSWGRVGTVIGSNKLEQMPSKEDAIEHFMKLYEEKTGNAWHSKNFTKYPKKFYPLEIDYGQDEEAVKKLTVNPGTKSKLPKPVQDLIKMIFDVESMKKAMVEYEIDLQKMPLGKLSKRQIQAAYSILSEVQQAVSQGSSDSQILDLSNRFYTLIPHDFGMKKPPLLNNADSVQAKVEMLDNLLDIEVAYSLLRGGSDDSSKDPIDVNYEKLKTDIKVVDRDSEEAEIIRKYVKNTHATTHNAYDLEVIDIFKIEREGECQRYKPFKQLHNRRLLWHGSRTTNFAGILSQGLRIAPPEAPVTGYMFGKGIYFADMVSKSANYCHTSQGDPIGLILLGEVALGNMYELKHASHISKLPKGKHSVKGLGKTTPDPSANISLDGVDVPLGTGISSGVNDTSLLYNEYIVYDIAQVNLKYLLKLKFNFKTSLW

[7] = test system: CAPAN-1; assay: Cell cycle arrest in human Capan1 cells assessed as accumulation at S phase at 10 uM after 72 hrs by propidium iodide-staining based flow cytometry (reference value: 21.42%); type: functional
[8] = test system: Mus musculus; assay: Toxicity in nude BALB/cA mouse xenografted with human Capan1 cells harboring BRCA2 mutant assessed as mortality at 40 mg/kg, po administered once daily for 21 consecutive days measured twice per week; type: organism-based; details: in vivo
[9] = Cmax in Sprague-Dawley rat at 10 mg/kg, po by LC-MS/MS analysis; type: ADME, organism-based; design: dose 10 mg/kg, route oral; details: in vivo
[10] = Solubility of the compound in water after 24 hrs by HPLC analysis; type: physicochemical
[11] = Apparent permeability across basolateral to apical side in human Caco2 cells assessed as drug recovery at 16870 pmol after 2 hrs by LC-MS/MS analysis; type: ADME, cell-based; details: Caco-2, read-out: Drug recovery
[12] = test system: CAPAN-1; assay: Antiproliferative activity against human Capan1 cells after 7 days by CCK8 or SRB assay; type: functional, cell-based; details: CAPAN-1, 168 h
[13] = Stability in mouse plasma at 1 uM up to 60 mins by LC-MS/MS analysis; type: ADME, cell-free; details: read-out: Stability
[14] = target: T1, Poly [ADP-ribose] polymerase 1; assay: Inhibition of PARP1 in human Capan1 cells assessed as increase in phosphorylated chk1 protein levels at 0.1 to 1 uM after 48 hrs by Western blot analysis; type: cell-based
[15] = test system: MDA-MB-436; assay: Induction of apoptosis in human MDA-MB-436 cells assessed as caspase-3/7 activation at 0.1 to 1 uM after 72 hrs by Caspase-Glo 3/7 assay; type: functional, cell-based
[16] = test system: MDA-MB-436; assay: Induction of apoptosis in human MDA-MB-436 cells assessed as late apoptotic cells at 0.1 uM after 96 hrs by Annexin V-FITC/propidium iodide double-staining based flow cytometery (reference value: 5.61%); type: functional
[17] = test system: MDA-MB-436; assay: Induction of apoptosis in human MDA-MB-436 cells assessed as late apoptotic cells at 0.1 uM after 96 hrs in presence of pancaspase inhibitor Z-VAD-FMK by Annexin V-FITC/propidium iodide double-staining based flow cytometery (reference value: 5.11%); type: functional
[18] = AUC in Sprague-Dawley rat at 10 mg/kg, po by LC-MS/MS analysis; type: ADME, organism-based; details: in vivo
[19] = target: T1, Poly [ADP-ribose] polymerase 1; assay: Inhibition of PARP1 in BRCA2 deficient human Capan1 cells assessed as increase in DNA double stranded breaks by measuring gammaH2AX levels after 48 hrs by Western blot analysis
[20] = test system: MDA-MB-436; assay: Induction of apoptosis in human MDA-MB-436 cells assessed as late apoptotic cells at 1 uM after 96 hrs in presence of pancaspase inhibitor Z-VAD-FMK by Annexin V-FITC/propidium iodide double-staining based flow cytometery (reference value: 5.11%); type: functional
[21] = test system: MDA-MB-436; assay: Induction of apoptosis in human MDA-MB-436 cells after 96 hrs by Annexin V-FITC/propidium iodide double-staining based flow cytometery; type: functional, cell-based
[22] = test system: CAPAN-1; assay: Cell cycle arrest in human Capan1 cells assessed as accumulation at G0/G1 phase at 1 uM after 72 hrs by propidium iodide-staining based flow cytometry (reference value: 63.33%); type: functional
[23] = test system: CAPAN-1; assay: Effect on total chk1 protein levels in human Capan1 cells at 0.1 to 1 uM after 48 hrs by Western blot analysis; type: ADME, cell-based; details: capan-1, 48 h

N#Cc1cccnc1N1CCN(C(=O)c2cc(Cc3n[nH]c(=O)c4ccccc34)cc(F)c2F)CC1
Activity [1]: Non-Toxic
Activity [2]: 55.92%
IC50 [3]: 10 to 10.3 µM
Activity [4]: 5.36%
efflux ratio at 2 h [5]: 5
inhibition [6]: Dose-dependent effect
Activity [7]: 22.4%
Activity [8]: Non-Toxic
Cmax [9]: 74.4 ng/mL
solubility at 24 h [10]: 1.1 µg/mL (≈ 2.26 µM)
recovery at 2 h [11]: 109%
IC50 [12]: 7.1 nM
remaining at 1 h, 1 µM [13]: 105%
inhibition [14]: Active
Activity [15]: Active
Activity [16]: 29.32%
Activity [17]: 17.99%
AUC [18]: 130 ng·h/mL
inhibition [19]: Dose-dependent effect
Activity [20]: 18.6%
Activity [21]: Dose-dependent effect
Activity [22]: 22.38%
Activity [23]: Non-Toxic
